Measurements as given in doi:10.1101/2024.08.19.608619, “Discovery of potent SARS-CoV-2 nsp3 macrodomain inhibitors uncovers lack of translation to cellular antiviral response” (bioRxiv, 2024).

tested on: not listed separately; test: Hepatic microsomal stability, HLM; assay type: in vitro ADME, human; settings: In vitro human liver microsomal stability

SMILES | clint | perc_remaining | t_half
CNCc1cc(-c2cc3c(N[C@@H](c4ccc5c(c4)S(=O)(=O)CCC5)C(C)C)ncnc3[nH]2)co1 [ASAP-0011176] | 133.0 µL/min/mg | 10.0% | 12.6 min

same assay, conditions: In vitro human liver microsomal stability; no cofactor

SMILES | perc_remaining_no_cofactor
CNCc1cc(-c2cc3c(N[C@@H](c4ccc5c(c4)S(=O)(=O)CCC5)C(C)C)ncnc3[nH]2)co1 [ASAP-0011176] | 95.0%

tested on: not listed separately; test: In vitro rat hepatocyte stability; assay type: in vitro ADME; settings: not given
From the text: Supplement media-1.zip/Hepatocyte_Stability.csv, table | column: clint; t_half

SMILES | clint | t_half
CNCc1cc(-c2cc3c(N[C@@H](c4ccc5c(c4)S(=O)(=O)CCC5)C(C)C)ncnc3[nH]2)co1 [ASAP-0011176] | 15.6 uL/min/1E6 cells | 44.5 min

tested on: CYP; test: CYP inhibition; assay type: in vitro ADME; settings: isoform 1A2; In vitro CYP inhibition pooled
From the text: Supplement media-1.zip/CYP_Inhibition.csv, table | column: ic50; potency

SMILES | IC50
CNCc1cc(-c2cc3c(N[C@@H](c4ccc5c(c4)S(=O)(=O)CCC5)C(C)C)ncnc3[nH]2)co1 [ASAP-0011176] | 49.3 µM

same assay, conditions: isoform 1A2; In vitro CYP inhibition pooled; potency class in words

SMILES | potency
CNCc1cc(-c2cc3c(N[C@@H](c4ccc5c(c4)S(=O)(=O)CCC5)C(C)C)ncnc3[nH]2)co1 [ASAP-0011176] | weak

same assay, conditions: isoform 2C9; In vitro CYP inhibition pooled

SMILES | IC50
CNCc1cc(-c2cc3c(N[C@@H](c4ccc5c(c4)S(=O)(=O)CCC5)C(C)C)ncnc3[nH]2)co1 [ASAP-0011176] | 5.25 µM

same assay, conditions: isoform 2C9; In vitro CYP inhibition pooled; potency class in words

SMILES | potency
CNCc1cc(-c2cc3c(N[C@@H](c4ccc5c(c4)S(=O)(=O)CCC5)C(C)C)ncnc3[nH]2)co1 [ASAP-0011176] | moderate

same assay, conditions: isoform 2C19; In vitro CYP inhibition pooled

SMILES | IC50
CNCc1cc(-c2cc3c(N[C@@H](c4ccc5c(c4)S(=O)(=O)CCC5)C(C)C)ncnc3[nH]2)co1 [ASAP-0011176] | 22.6 µM

same assay, conditions: isoform 2C19; In vitro CYP inhibition pooled; potency class in words

SMILES | potency
CNCc1cc(-c2cc3c(N[C@@H](c4ccc5c(c4)S(=O)(=O)CCC5)C(C)C)ncnc3[nH]2)co1 [ASAP-0011176] | weak

same assay, conditions: isoform 2D6; In vitro CYP inhibition pooled

SMILES | IC50
CNCc1cc(-c2cc3c(N[C@@H](c4ccc5c(c4)S(=O)(=O)CCC5)C(C)C)ncnc3[nH]2)co1 [ASAP-0011176] | 9.03 µM

same assay, conditions: isoform 2D6; In vitro CYP inhibition pooled; potency class in words

SMILES | potency
CNCc1cc(-c2cc3c(N[C@@H](c4ccc5c(c4)S(=O)(=O)CCC5)C(C)C)ncnc3[nH]2)co1 [ASAP-0011176] | moderate

same assay, conditions: isoform 3A4; In vitro CYP inhibition pooled

SMILES | IC50
CNCc1cc(-c2cc3c(N[C@@H](c4ccc5c(c4)S(=O)(=O)CCC5)C(C)C)ncnc3[nH]2)co1 [ASAP-0011176] | 1.81 µM

same assay, conditions: isoform 3A4; In vitro CYP inhibition pooled; potency class in words

SMILES | potency
CNCc1cc(-c2cc3c(N[C@@H](c4ccc5c(c4)S(=O)(=O)CCC5)C(C)C)ncnc3[nH]2)co1 [ASAP-0011176] | moderate-potent

molecular target: T1, alpha2A (h) (Homo sapiens, UniProt P08913); test: In vitro CEREP profiling, alpha2A (h) (antagonist radioligand); assay type: binding; settings: test compound 10 uM
T1 construct: purchased Eurofins Cerep (SafetyScreen44), recognised from the panel format
T1 sequence (P08913 1-465): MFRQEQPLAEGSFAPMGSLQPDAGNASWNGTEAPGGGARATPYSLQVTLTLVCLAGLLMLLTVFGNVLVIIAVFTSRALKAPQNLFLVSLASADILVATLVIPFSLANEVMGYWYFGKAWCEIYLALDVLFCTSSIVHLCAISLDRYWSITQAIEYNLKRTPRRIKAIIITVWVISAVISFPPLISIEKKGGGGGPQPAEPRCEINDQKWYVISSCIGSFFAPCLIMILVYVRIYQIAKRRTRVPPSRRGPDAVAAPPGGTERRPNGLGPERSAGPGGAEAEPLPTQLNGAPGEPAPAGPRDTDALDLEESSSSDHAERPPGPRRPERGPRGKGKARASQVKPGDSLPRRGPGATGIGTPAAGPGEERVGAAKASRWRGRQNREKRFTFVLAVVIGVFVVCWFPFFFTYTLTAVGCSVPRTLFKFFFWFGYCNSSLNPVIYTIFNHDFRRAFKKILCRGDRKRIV
From the text: (§1) Supplement media-1.zip/Safety_Panel_Profile.csv, table | column: perc_inhibition

SMILES | perc_inhibition (% inhibition of the binding of a ligand specific for each target)
CNCc1cc(-c2cc3c(N[C@@H](c4ccc5c(c4)S(=O)(=O)CCC5)C(C)C)ncnc3[nH]2)co1 [ASAP-0011176] | 15%

molecular target: T2, COX2(h) (Homo sapiens, UniProt P35354); test: In vitro CEREP profiling, COX2(h); assay type: biochemical; settings: test compound concentration 10 uM; Enzyme and Cell-based assays
T2 construct: purchased Eurofins Cerep (SafetyScreen44), recognised from the panel format
T2 sequence (P35354 18-604): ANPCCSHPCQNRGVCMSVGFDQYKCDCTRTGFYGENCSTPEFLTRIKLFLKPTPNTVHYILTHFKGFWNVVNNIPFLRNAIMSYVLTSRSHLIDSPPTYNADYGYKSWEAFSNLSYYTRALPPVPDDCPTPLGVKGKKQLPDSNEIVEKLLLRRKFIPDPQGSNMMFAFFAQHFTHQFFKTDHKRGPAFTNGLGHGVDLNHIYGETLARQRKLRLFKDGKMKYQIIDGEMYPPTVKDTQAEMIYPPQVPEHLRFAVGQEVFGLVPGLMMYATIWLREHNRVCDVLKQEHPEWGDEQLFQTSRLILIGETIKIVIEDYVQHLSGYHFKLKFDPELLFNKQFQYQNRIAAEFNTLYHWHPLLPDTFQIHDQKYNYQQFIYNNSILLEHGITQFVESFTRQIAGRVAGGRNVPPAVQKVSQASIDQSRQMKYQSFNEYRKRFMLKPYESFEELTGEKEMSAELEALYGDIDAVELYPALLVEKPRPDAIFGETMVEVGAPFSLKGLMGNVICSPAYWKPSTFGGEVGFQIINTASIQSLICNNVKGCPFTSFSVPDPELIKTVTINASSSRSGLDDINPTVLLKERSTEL
From the text: as §1

SMILES | perc_inhibition: % inhibition of control enzyme activity, COX2(h)
CNCc1cc(-c2cc3c(N[C@@H](c4ccc5c(c4)S(=O)(=O)CCC5)C(C)C)ncnc3[nH]2)co1 [ASAP-0011176] | 24%
